Measurements as given in patent US20170205396A1, “SYSTEMS AND METHODS FOR CULTURING NEPHRON PROGENITOR CELLS” (Salk Institute for Biological Studies, priority 2016, published 2017).

Tests used:
[1] = test system: nephron organoids; assay: Mouse nephron organoid generation and chemical treatment; type: cell-based
Text: Given kidney's primary function in plasma filtration and metabolic homeostasis, drug-induced nephrotoxicity is common and constitutes a major consideration during the development of new therapeutic drugs. Currently, drug toxicity screening is largely performed using monolayer cultured immortalized kidney cells. Cells in monolayer culture, however, lack an intact 3D nephron structure and are thus limited for accurate prediction of a drug's effect on kidney function. Another layer of complexity during drug screening using immortalized cell lines relates to genetic abnormalities. […] A screen was done to determine conditions that allow efficient organoid generation from srNPCs. […] Committed srNPCs were designated as fate-specified NPCs or FS-NPCs. FS-NPCs could further differentiate autonomously and form nephron organoids marked by numerous tubular formations (FIG. 3B). Whole-mount staining of obtained nephron organoids identified numerous PODXL+/WT1+ glomeruli, LTL+ proximal tubules and CDH1+ distal tubules. The transition from srNPCs via FS-NPCs to nephron organoids was rapid (as short as 7 days), highly efficient and composed of all major nephron segments representing the glomeruli and proximal and distal tubules.
In vivo, NPCs first differentiate to pretubular aggregates (PTA) and renal vesicles (RV) before further maturation to form the segmented renal tubules. To determine which stage FS-NPCs likely correspond to, the expression of common PTA and RV markers was checked. […] Immunofluorescence studies confirmed protein expression of both PTA/RV markers (LHX1 and PAX8) and NPC markers (SIX2 and SALL1) in FS-NPCs.
The utility of srNPC-derived organoids for renal toxicity testing was determined. […]
CD2AP is an important interacting protein for NEPHRIN and PODOCIN and is necessary for proper glomerulus functions and mutations in CD2AP are associated with sporadic nephrotic syndrome and focal segmental glomerulosclerosis (FSGS). […] Consistent with the hypothesis, Cd2ap was expressed in wild type (#2) while barely detected in gene-disrupted (#1 and #3) organoids (FIG. 3E). […]

[2] = test system: Six2-GFP+ NPCs; assay: NPSR-based 3D aggregate culture of primary NPCs (srNPC derivation, long-term expansion, component withdrawal); type: cell-based, mouse; settings: each of six components subtracted, period as short as 4 days
Text: NPCs in mouse first appear around embryonic day 11.5 (E11.5) and mark the onset of nephrogenesis. In mice, NPCs exhaust shortly after birth, around postnatal day 3 (P3), after their last wave of differentiation into nephrons. Lineage tracing experiments have established SIX2 as a specific NPC marker. Available mouse strain with GFP cassette knocked in the Six2 locus (Six2^GCE) facilitates purification of Six2-GFP+ population from embryonic or neonatal mouse kidneys by fluorescence activated cell sorting (FACS). To screen for conditions conducive to in vitro expansion of NPCs Six2-GFP+ cells were isolated from E13.5 embryonic kidneys of Six2^GCE mice. Considering that in vivo NPCs are tightly packed together, it was hypothesized that the cell-cell contact might play a role in their survival and proliferation. Thus, to better preserve the native microenvironment, sorted Six2-GFP+ NPCs were transferred into U-bottom low-attachment 96-well plates to form 3D aggregates. In base medium supplemented with serum alone NPC aggregates could form.
The optimal condition supportive of NPC self-renewal in vitro was determined by screening growth factors and chemical inhibitors for known signaling pathways implicated in regulating NPC survival, self-renewal, and differentiation in vivo as well as other signaling pathways that were not previously reported. Cell viability, growth rate, and GFP signal were considered among other criteria. Through successive testing a novel culture condition was established containing a cocktail of BMP7, FGF2, Heparin, Y27632, LIF, and CHIR99021 that promotes long-term in vitro expansion of Six2-GFP+ NPCs with high purity (it was named NPC self-renewal medium, or NPSR medium) (FIG. 1A). Of note is that isolated Six2+ NPCs have been propagated in this culture for more than one year and more than 70 passages. The established NPC lines were designated as self-renewable NPCs (srNPCs) due to their unlimited proliferative potential. srNPCs grow fast under this culture condition. Starting with 3,000 cells, after 5 days, the aggregate can grow to around 1 mm in diameter containing around 100,000 cells (FIG. 1B and FIG. 1C). srNPC aggregates maintain stable growth rate after long term passages with 6 to 7 doublings per passage (FIG. 1D). […] Moreover, similar results were obtained when SIX2 and other NPC marker gene expressions were quantified by immunostaining: SIX2+ (˜96.2%), SALL1+ (˜99.1%), CITED1+ (˜96.1%) (FIG. 1E). […] To this end each of the six components were subtracted from NPSR medium and evaluated the effects on srNPCs.
It was determined whether NPSR culture could also support the derivation of srNPCs from other developmental stages harboring Six2+ populations. […]

Compound	effect of removal of the component from NPSR medium on srNPCs [2]	further results
C[C@H](NC(=O)Cc1cc(F)cc(F)c1)C(=O)N[C@H](C(=O)OC(C)(C)C)c1ccccc1 [DAPT]		effect on proximal tubule and glomerulus differentiation ([1]; 5 μM, day 2 to day? (FS-NPCs to nephron organoids)): both proximal tubules and glomerulus differentiation were inhibited
C[C@@H](N)[C@H]1CC[C@H](C(=O)Nc2ccncc2)CC1 [Y27632]	slower cell growth	
FGF2: fibroblast growth factor, NPSR medium component	slower cell growth	
Heparin	slower cell growth	
LIF: leukemia inhibitory factor protein, an interleukin 6 class cytokine	loss of GFP signal	
lipopolysaccharide [LPS]		glomerulus injury in nephron organoids (morphology, active Caspase 3) ([1]; 20 μg/ml, two-day exposure, day 7 organoids): specific damages in the glomerulus; apoptotic cells (active Caspase 3) in Cd2ap-deficient versus wild type organoids ([1]; low dosage 10 μg/ml, two days, tetO srNPC lines): accumulated more apoptotic cells than the wild type
